Test results as given in PubChem BioAssay AID1645862 (Buhrlage Lab, Dana-Farber Cancer Institute and Novartis …, 2021).
Activity calls are given as the source filed them. How the calls were made is not given here.

Each molecule was assayed against Ubiquitin carboxyl-terminal hydrolase 8 (Homo sapiens) (UniProt P40818) (assay: Ubiquitin-specific protease 8 inhibitors, concentration-effect, biochemical, validation of initial actives (AID 1645862;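 further: potency reflects inhibition of USP8 cleavage of a ubiquitin rhodamine substrate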)). Settings: recombinant USP8 deubiquitinase activity assay.
Chain of Ubiquitin carboxyl-terminal hydrolase 8 (Homo sapiens) (P40818 whole entry, looked up): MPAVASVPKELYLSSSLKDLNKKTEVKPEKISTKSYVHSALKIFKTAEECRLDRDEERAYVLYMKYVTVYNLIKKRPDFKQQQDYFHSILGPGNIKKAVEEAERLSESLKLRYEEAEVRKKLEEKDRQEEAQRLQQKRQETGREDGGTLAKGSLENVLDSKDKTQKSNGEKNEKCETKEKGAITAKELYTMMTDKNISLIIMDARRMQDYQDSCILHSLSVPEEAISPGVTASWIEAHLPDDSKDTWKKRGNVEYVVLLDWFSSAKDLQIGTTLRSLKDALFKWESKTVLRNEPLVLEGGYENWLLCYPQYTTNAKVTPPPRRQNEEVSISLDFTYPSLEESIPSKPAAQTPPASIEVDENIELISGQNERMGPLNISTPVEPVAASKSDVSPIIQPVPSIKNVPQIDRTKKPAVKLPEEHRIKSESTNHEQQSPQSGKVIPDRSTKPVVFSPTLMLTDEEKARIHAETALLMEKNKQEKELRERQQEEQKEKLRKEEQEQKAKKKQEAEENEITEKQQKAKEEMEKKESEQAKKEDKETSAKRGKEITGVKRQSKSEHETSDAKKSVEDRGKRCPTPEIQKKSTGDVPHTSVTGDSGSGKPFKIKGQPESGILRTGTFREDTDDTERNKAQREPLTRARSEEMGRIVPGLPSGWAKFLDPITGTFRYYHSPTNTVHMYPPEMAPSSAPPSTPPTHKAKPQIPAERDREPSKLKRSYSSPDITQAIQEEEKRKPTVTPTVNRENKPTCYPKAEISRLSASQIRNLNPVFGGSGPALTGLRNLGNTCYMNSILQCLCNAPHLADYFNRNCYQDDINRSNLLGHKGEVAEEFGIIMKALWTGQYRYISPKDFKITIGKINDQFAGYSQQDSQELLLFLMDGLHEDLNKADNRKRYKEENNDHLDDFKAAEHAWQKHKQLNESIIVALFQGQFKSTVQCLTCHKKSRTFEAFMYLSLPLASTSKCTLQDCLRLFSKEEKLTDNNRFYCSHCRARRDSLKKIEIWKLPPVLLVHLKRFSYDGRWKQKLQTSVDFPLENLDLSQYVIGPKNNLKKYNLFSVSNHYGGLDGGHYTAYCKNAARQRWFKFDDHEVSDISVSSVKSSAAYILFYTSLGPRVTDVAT
In the case of `O=C(NCc1ccc2c(c1)OCO2)c1cc2c(s1)-c1ccccc1OC2`, the IC50 is reported as > 40 µM (inactive). With `Cc1cc(C)c(NC(=O)CSc2nc3nccnc3c(=O)n2Cc2ccccc2Cl)c(C)c1` the IC50 was > 40 µM (inactive). `FC(F)(F)c1ccc(Nc2nnnc3ccccc23)cc1` was tested, and the IC50 was > 40 µM (inactive). Molecule `O=C1c2c(O)cccc2C2(Oc3cccc4cccc(c34)O2)C2OC12` (stereo unspecified) has an IC50 of 7.76 µM. In the case of `Cc1ccc(C)c(NC(=O)Cn2cc(C(=O)C3CC3)c3ccccc32)c1`, the IC50 is reported as 27.3 µM. `Cc1nc(N2CCCC2)ncc1-c1cc(=O)[nH]c(Nc2ccc(Cl)cc2Cl)n1` was tested, and the IC50 was > 40 µM (inactive). With `CNC(=O)c1c2n(c3ncccc13)CCN(S(=O)(=O)c1ccc(-c3ccccc3)cc1)C2` the IC50 was > 40 µM (inactive). `O=C(CNC(=O)OCc1ccccc1)Nc1ccc(Br)cc1C(=O)c1ccccc1Cl` was tested, and the IC50 was > 40 µM (inactive). For `O=C(Nc1cccc(Cl)c1)c1ncn2c1CNS(=O)(=O)c1ccccc1-2`, the IC50 was > 40 µM (inactive). `CCC(=O)Nc1nc2cc(NC(=O)Nc3ccc(C)cc3)ccc2s1` was tested, and the IC50 was > 40 µM (inactive). `CC(C)[C@H]1CC[C@@]2(CO2)[C@H]2C(=O)OCC(C(=O)O)=C[C@H]12` was tested, and the IC50 was 22.9 µM. `CC(Nc1nnc(Cc2ccccc2)c(=O)[nH]1)c1ccccc1` (stereo unspecified) was tested, and the IC50 was > 40 µM (inactive). With `COc1ccc(C2/C(=C(\O)c3ccccc3)C(=O)C(=O)N2c2cccc(C(F)(F)F)c2)cc1` (stereo unspecified) the IC50 was > 40 µM (inactive). In the case of `O=C(CSc1nnc2c3ccccc3nc(-c3ccco3)n12)N1CCCc2ccccc21`, the IC50 is reported as > 40 µM (inactive). For `Cc1ccccc1-n1ccc2nc(N3CCCC3)ncc2c1=O`, the IC50 was > 40 µM (inactive). In the case of `COc1ccc(OC)c(NC(=O)Cn2c(=O)n(C3CCCCC3)c(=O)c3ccccc32)c1`, the IC50 is reported as > 40 µM (inactive). With `CC1OC2CC(O)C1(O)C1=C2C(O)=C(C(N)=O)C(=N)C1=O` (stereo unspecified) the IC50 was 1.56 µM. In the case of `CC[C@H](C)[C@H](NC(=O)[C@H]([C@@H](C)CC)N(C)C(C)=O)C(=O)N[C@H](C(=O)N[C@@H](CC(C)C)C(=O)C1(C)CO1)[C@@H](C)O` (stereo partly specified), the IC50 is reported as > 40 µM (inactive). In the case of `COc1ccccc1/C=C/C(=O)NC(Cc1ccccc1)c1nc2ccccc2[nH]1` (stereo unspecified), the IC50 is reported as > 40 µM (inactive). For `CN(C)S(=O)(=O)c1ccc(NC(=O)CN2CCCc3ccccc32)cc1`, the IC50 was > 40 µM (inactive). With `CC1=C(Cn2c3cccc(=O)c-3nc3ccccc32)CCC(C)(C)C1` the IC50 was 1.71 µM. `COC(=O)c1ccc(N2CCN(C(C)=O)CC2)c(NC(=O)COc2ccc([N+](=O)[O-])cc2)c1` was tested, and the IC50 was > 40 µM (inactive). With `Cc1ccccc1NC(=O)Nc1cccc(-c2nnc(-c3ccccc3)o2)c1` the IC50 was > 40 µM (inactive). For `CCN(Cc1ccccc1)C(=O)C1CCN(Cc2ccc(OC)c(OC)c2OC)CC1`, the IC50 was > 40 µM (inactive). In the case of `COc1ccccc1-c1nc(-c2cn(-c3ccc(F)cc3)nn2)no1`, the IC50 is reported as 27.8 µM. In the case of `O=C(c1cc(Cl)c(Cl)[nH]1)c1cc(Cl)cc(Cl)c1O`, the IC50 is reported as > 40 µM (inactive). With `COc1ccc2cc(C(=O)N3CCC(C(C)C(=O)NCc4cccc(F)c4)CC3)[nH]c2c1` (stereo unspecified) the IC50 was > 40 µM (inactive). For `COc1ccccc1NC(=O)Cn1cc(C(=O)c2ccc(C)cc2)c(=O)c2cc(Cl)ccc21`, the IC50 was > 40 µM (inactive). Molecule `Cn1c2ccccc2c(=O)c2c(=O)n(Cc3ccco3)c(-c3ccccc3F)nc21` has an IC50 of 29.4 µM. `CSc1nc2ncn(CC(=O)Nc3ccc(Br)cc3)c(=O)c2s1` was tested, and the IC50 was > 40 µM (inactive). `COc1cc(NC(=O)Cn2c(=O)n(-c3ccc(CC(=O)NC4CCCC4)cc3)c(=O)c3ccccc32)cc(OC)c1` was tested, and the IC50 was > 40 µM (inactive). `CCOC(=O)N1CCN(C(=O)c2ccc(NCc3ccc(F)cc3)c(S(=O)(=O)Nc3cccc(C(F)(F)F)c3)c2)CC1` was tested, and the IC50 was > 40 µM (inactive). For `COc1cc(Cl)c(NC(=O)C2Cc3ccccc3N2C(=O)c2ccccc2)c(OC)c1` (stereo unspecified), the IC50 was > 40 µM (inactive). With `Fc1cccc(Nc2nc(-c3ccccn3)nc3ccccc23)c1` the IC50 was > 40 µM (inactive). `Cc1cc(C)c(NC(=O)Cn2c(=O)n(CCC(=O)NCc3ccc4c(c3)OCO4)c(=O)c3sccc32)c(C)c1` was tested, and the IC50 was > 40 µM (inactive). In the case of `CSCCC(NC(=O)c1ccccc1)c1nc2ccccc2n1CC(=O)Nc1ccccc1` (stereo unspecified), the IC50 is reported as > 40 µM (inactive).
